Assay results taken from ChEMBL document CHEMBL1146505, “Flavonoid glycosides from Adina racemosa and their inhibitory activities on eukaryotic protein synthesis” (2004).
Activity calls are given as the source filed them. The rule behind the calls is not given here.

What was measured:
Assay type in all cases: functional
[1] = (§1) Inhibition of protein synthesis in mouse Krebs cells overexpressing (CAG)33/FF/HCV/Ren mRNA reporter transcript assessed as renilla luciferase production at 100 uM relative to control
[2] = (§2) Inhibition of protein synthesis in mouse Krebs cells overexpressing (CAG)33/FF/HCV/Ren mRNA reporter transcript assessed as firefly luciferase production at 100 uM relative to control
[3] = Inhibition of translation in mouse Krebs cells overexpressing (CAG)33/FF/HCV/Ren mRNA reporter transcript assessed as luciferase production at 100 uM relative to control
[4] = system: Krebs; assay: as §1
[5] = system: Krebs; assay: as §2
[6] = system: Escherichia coli; assay: Inhibition of bacterial protein synthesis in Escherichia coli S30 overexpressing pBEST/luc and [35S]met assessed as [35S]met incorporation
[7] = organism: Oryctolagus cuniculus; assay: Inhibition of translation initiation in rabbit reticulocyte lysates with [32P]CAT mRNA assessed as 80S initiation complex formation at 50 uM by ribosome binding assay in presence of cycloheximide

Structure (SMILES): C[C@@H]1O[C@@H](OC[C@H]2O[C@@H](Oc3c(-c4ccc(O)c(O)c4)oc4cc(O)cc(O)c4c3=O)[C@H](O)[C@@H](OC(=O)/C=C/c3ccc(O)cc3)[C@H]2O)[C@H](O)[C@H](O)[C@H]1O
- fold change (FC) [1]: 2
- fold change (FC) [2]: 2

Structure (SMILES): C[C@@H]1O[C@@H](OC[C@H]2O[C@@H](Oc3c(-c4ccc(O)cc4)oc4cc(O)cc(O)c4c3=O)[C@H](O[C@@H]3O[C@@H](C)[C@H](OC(=O)/C=C/c4ccc(O)cc4)[C@@H](O)[C@H]3O)[C@@H](O)[C@H]2OC(=O)/C=C/c2ccc(O)cc2)[C@H](O)[C@H](O)[C@H]1O
- fold change (FC) [3]: 5
- Activity [4]: Active
- Activity [5]: Active

Structure (SMILES): C[C@@H]1O[C@@H](OC[C@H]2O[C@@H](Oc3c(-c4ccc(O)c(O)c4)oc4cc(O)cc(O)c4c3=O)[C@H](O)[C@@H](O)[C@H]2OC(=O)/C=C/c2ccc(O)cc2)[C@H](O)[C@H](O)[C@H]1O
- fold change (FC) [1]: 2
- fold change (FC) [2]: 2

Structure (SMILES): C[C@@H]1O[C@@H](OC[C@H]2O[C@@H](Oc3c(-c4ccc(O)c(O)c4)oc4cc(O)cc(O)c4c3=O)[C@H](O[C@@H]3O[C@@H](C)[C@H](OC(=O)/C=C/c4ccc(O)cc4)[C@@H](O)[C@H]3O)[C@@H](O)[C@H]2OC(=O)/C=C/c2ccc(O)cc2)[C@H](O)[C@H](O)[C@H]1O
- fold change (FC) [3]: 5
- Activity [4]: Active
- Activity [5]: Active

Structure (SMILES): C[C@@H]1O[C@@H](OC[C@H]2O[C@@H](Oc3c(-c4ccc(O)c(O)c4)oc4cc(O)cc(O)c4c3=O)[C@H](O[C@@H]3O[C@@H](C)[C@H](OC(=O)/C=C/c4ccc(O)c(O)c4)[C@@H](O)[C@H]3O)[C@@H](OC(=O)/C=C/c3ccc(O)cc3)[C@H]2O)[C@H](O)[C@H](O)[C@H]1O
- fold change (FC) [3]: 10
- Activity [6]: inactive
- Activity [7]: inactive
- Activity [4]: Active
- Activity [5]: Active

Structure (SMILES): C[C@@H]1O[C@@H](OC[C@H]2O[C@@H](Oc3c(-c4ccc(O)cc4)oc4cc(O)cc(O)c4c3=O)[C@H](O)[C@@H](O)[C@H]2OC(=O)/C=C/c2ccccc2)[C@H](O)[C@H](O)[C@H]1O
- fold change (FC) [1]: 2
- fold change (FC) [2]: 2

Structure (SMILES): C[C@@H]1O[C@@H](OC[C@H]2O[C@@H](Oc3c(-c4ccc(O)c(O)c4)oc4cc(O)cc(O)c4c3=O)[C@H](O[C@@H]3O[C@@H](C)[C@H](OC(=O)/C=C/c4ccc(O)cc4)[C@@H](O)[C@H]3O)[C@@H](OC(=O)/C=C/c3ccc(O)cc3)[C@H]2O)[C@H](O)[C@H](O)[C@H]1O
- fold change (FC) [3]: 10
- Activity [4]: Active
- Activity [5]: Active
